# Assay results from patent US20090131380A1, “Novel pharmaceutical composition for topical treatment of skin psoriasis and the treatment method thereof” (priority 2007, published 2009).
# Assays:
# skin psoriasis = conditions: cited from earlier work; for clinical antipsoriatic efficacy: topical, 0.05% (w/w) in Locobase® unctuous creme, 50 μg/cm^2/24 h, 35 days; for effect on psoriatic rash (irritation / worsening): topically administered
# [1] = tested on: psoriatic plaques (skin psoriasis); experiment: Topical treatment trial of psoriatic plaques in one psoriasis patient (Tetrac, Control and Daivonex regimens); type: in vivo, human; conditions: twice a day
# Experimental: A psoriasis patient having almost symmetrical psoriatic plaques on the lateral sides of both elbows (l.dx: 41 cm^2 and l.sin: 44 cm^2) and a psoriatic plaque (53 cm^2) on right calf was chosen for the trial.
# a) An ointment (Locobase® unctuous creme, Astellas Pharma A/S Glostrup, Denmark) in which 500 μg/g 3,3′,5,5′-tetraiodothyroacetic acid (0.05%) of GMP-quality (Pharmatory Ltd., Oulu, Finland) was mixed was used as an ex tempore preparation for the concerned treatment purpose (hereinafter referred to as “Tetrac”).
# b) A 50 μg/g calcipotriol (0.005%) containing creme (Daivonex®, LEO Pharma A/S, Ballerup, Denmark) was available as commercial pharmaceutical product (hereinafter referred to as “Daivonex®”).
# c) A betamethasone 17-valerate-containing creme (Bemetson®, Orion oyj, Espoo, Finland) responding betamethasone 1 mg/g (0.1%) was available as a commercial product (hereinafter referred to as “Bemetson®”).
# a) The psoriatic lesion of the left elbow of the patient was selected as the target of the topical treatment with Tetrac, the result of which is shown in left column of FIG. 1—“The Tetrac Regimen”. […]
# psoriasis = conditions: topical Triac; WO96/40048; cited from earlier work
# plaque psoriasis = conditions: placebo-controlled double-blind study, carried out in 1997; cited from earlier work
Compound,clinical antipsoriatic efficacy (skin psoriasis),effect on psoriatic rash (irritation / worsening) (skin psoriasis),other results
N[C@H](Cc1cc(I)c(Oc2cc(I)c(O)c(I)c2)c(I)c1)C(=O)O [D-thyroxine],ineffective,do not irritate or worsen psoriatic rash,–
N[C@@H](Cc1cc(I)c(Oc2cc(I)c(O)c(I)c2)c(I)c1)C(=O)O [L-thyroxine],–,greatly worsen psoriatic rash,–
N[C@@H](Cc1cc(I)c(Oc2ccc(O)c(I)c2)c(I)c1)C(=O)O [L-triiodothyronine],–,greatly worsen psoriatic rash,–
"O=C(O)Cc1cc(I)c(Oc2cc(I)c(O)c(I)c2)c(I)c1 [Tetrac, 3,3′,5,5′-tetraiodothyroacetic acid]",strong clinical antipsoriatic efficacy,–,"clinical antipsoriatic effect on psoriatic lesion ([1]; after five weeks, photographs FIG. 1 / FIG. 2): clear clinical antipsoriatic effect; clinical antipsoriatic effect / healing of psoriatic plaque at end of trial ([1]; six weeks, Bemetson® (betamethasone) concurrently added for the final sixth week): surprisingly more potent clinical antipsoriatic effect"
"O=C(O)CCc1cc(I)c(Oc2cc(I)c(O)c(I)c2)c(I)c1 [Tetraprop, 3,3′,5,5′-tetraiodothyropropionic acid]",strong clinical antipsoriatic efficacy,–,–
"O=C(O)Cc1cc(I)c(Oc2ccc(O)c(I)c2)c(I)c1 [Triac, 3,3′5-triiodothyroacetic acid]",indeed ineffective,do not irritate or worsen psoriatic rash,experiment persons in whom an antipsoriatic effect had emerged (psoriasis): 60%; efficacy in the topical treatment of plaque psoriasis (plaque psoriasis): ineffective
